# Experiments:
# Test in all cases: Cell line panel 1 viability screen
# Format in all cases: cell-based
# CAPAN-1 = CAPAN-1 (pancreas)
# Method in brief: (§1)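 First, lines were treated for 72 hours with MLN4924 (20 nM, 200 nM, 2 μM). Next, cell number was quantified with a fluorescent cell-permeant nucleic acid stain. Finally, triplicate means were normalised to DMSO, and each line was classed by its POC at 2 μM.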
# GAMG = GAMG (central nervous system)
# Method in brief: as §1
# COCM1 = test system: COCM1
# Method in brief: as §1
# SW1573 = SW1573 (lung)
# Method in brief: as §1
# HT55 = settings: Homo sapiens; HT55 (intestine); 2 μM MLN4924, 72 hours; DMSO control about 1
# Method in brief: as §1
# MDA-MB-468 = MDA-MB-468 (breast)
# Method in brief: as §1
# HCT-15 = settings: Homo sapiens; HCT-15 (intestine); 2 μM MLN4924, 72 hours; DMSO control about 1
# Method in brief: as §1
# PANC-03-27 = PANC-03-27 (pancreas)
# Method in brief: as §1
# [1] = Homo sapiens, 2 μM MLN4924, 72 hours, DMSO control about 1
compound,measurement,setting,value
"NS(=O)(=O)OC[C@@H]1C[C@@H](n2ccc3c(N[C@H]4CCc5ccccc54)ncnc32)C[C@@H]1O [MLN4924, ((1S,2S,4R)-4-{4-[(1S)-2,3-dihydro-1H-inden-1-ylamino]-7H-pyrrolo[2,3-d]pyrimidin-7-yl}-2-hydroxycyclopentyl)methyl sulphamate]",Phenotype,CAPAN-1; SMAD4 mutant,sensitive?
same,viability at 2 µM,CAPAN-1; [1],14.7%
same,Phenotype,GAMG; SMAD4 mutant,sensitive (median POC values of less than the median value of all POC's recorded in the panel (<0.34) indicated sensitivity)
same,viability at 2 µM,GAMG; [1],7.21%
same,viability at 2 µM,"COCM1; COCM1 / CoCM-1 (intestine), 2 μM MLN4924, 72 hours, DMSO control about 1",114%
same,Phenotype,"COCM1; CoCM-1 (large_intestine), SMAD4 mutant",resistant (values greater than the 3rd quartile of all POC's in the panel (>0.75) insensitivity or resistance)
same,viability at 2 µM,SW1573; [1],11.1%
same,Phenotype,SW1573; NF2 and SMAD4 mutant,sensitive (median POC values of less than the median value of all POC's recorded in the panel (<0.34) indicated sensitivity)
same,viability at 2 µM,HT55,51.4%
same,viability at 2 µM,MDA-MB-468; [1],29.6%
same,Phenotype,MDA-MB-468; SMAD4 mutant,sensitive (median POC values of less than the median value of all POC's recorded in the panel (<0.34) indicated sensitivity)
same,viability at 2 µM,HCT-15,66.5%
same,viability at 2 µM,PANC-03-27; [1],7.24%
same,Phenotype,PANC-03-27; SMAD4 mutant,sensitive (median POC values of less than the median value of all POC's recorded in the panel (<0.34) indicated sensitivity)
